System: CA77 cells
Experiment: CA77 cell assay, real-time RT-PCR (TaqMan)
Format: cell-based, rat
Conditions: CA77 cells
Protocol: Assay: CA77 cells were plated into 96 well tissue culture dishes at a density of 8×10^4 cells per well in 200 μl of PM and the cultures maintained in a humidified air atmosphere (7.5% CO2) at 37° C. This media was aspirated after 24 hours and replaced with 200 μl of GM and the cultures incubated as before, for an additional 48 hours, at which time the cultures were at approximately 90% confluency.
For the evaluation of agonist activity, the GM was aspirated, replaced with 200 μl of fresh GM containing concentrations of a drug ranging from 0.1 nM to 10,000 nM in a 10-fold dilution series. Control wells of 0 nM drug in GM and 0.1% DMSO in GM were included in the series for each drug. Each drug concentration and the two controls were evaluated on 4 wells. The cultures were maintained in a humidified air atmosphere (7.5% CO2) at 37° C. for 24 hours.
Control wells of 0 nM drug in GM containing 250 nM corticosterone and 0.1% DMSO in GM (without corticosterone) were included in the series for each drug. Each drug concentration and the two controls were evaluated on 4 wells. The cultures were maintained in a humidified air atmosphere (7.5% CO2) at 37° C. for 24 hours.
Lysis of Cells and Isolation of mRNA: Two methods were employed for the lysis of the cells and the isolation of mRNA at the end of the 24-hour incubation with the drugs.
One method was the mRNA Catcher™ Method (using Kit number 37001, sold by Invitrogen Corporation). The GM was aspirated from the cells, the cell monolayer was washed once with PBS (product number 10010, sold by Invitrogen Corporation), and then the cells were lysed in 30 μl of the kit lysis buffer containing 1% β-ME for 5 minutes at room temperature. The lysates were snap frozen in the 96-well plate by placing the plate on dry ice pellets, and the plate was then stored at −80° C.
The lysates were thawed at room temperature and then transferred into individual wells in the mRNA Catcher™ plate. The plate was covered and incubated for 90 minutes at room temperature for RNA hybridization. […]

C[C@@H]1C[C@H]2[C@@H]3CCC4=CC(=O)C=C[C@]4(C)[C@@]3(F)[C@@H](O)C[C@]2(C)[C@@]1(O)C(=O)CO [Dexamethasone, dexamethasone]
Sult1a1 up-regulation as detected by RT-PCR: 158 fold

Source: US20100040552A1, “METHODS TO EVALUATE GLUCOCORTICOID RECEPTOR AGONISTS AND ANTAGONISTS FOR EFFECTS ON NEURON-LIKE CELLS” (ROSETTA INPHARMATICS LLC, priority 2005, published 2010)
